Marks after values point to notes of the source that are not given here.
What was measured:
weaned barrows [1] = experiment: Example 3: feeding trial in weaned piglets, glutamine and/or glutamic acid added to starter feed; format: in vivo
Source text: 120 weaned barrows were used and divided into 4 groups (30 animals for each group, 6 replications with 5 animals per replication), namely a control group (C), a glutamine alone administration group (GLN), a glutamic acid alone administration group (GLU) and a glutamine+glutamic acid mixture administration group (GLN+GLU). Piglets were weaned at 17 days of age in average. Also, the GLN group was provided with an experimental feed prepared by adding crystalline glutamine at 1.2% per feed weight to the starter feed, the GLU group with an experimental feed prepared by adding crystalline glutamic acid at 1.2% per feed weight to the starter feed, and the GLN+GLU group with an experimental feed prepared by adding glutamine and glutamic acid at 0.12% and 1.08%, respectively, per feed weight to the starter feed. After two weeks passed, a common feed was fed to all groups. Body weight and residual feed weight were measured to calculate feed intake, body weight gain and feed efficiency on the 14th and 21st days after the weaning.

Small Intestinal Villi = experiment: Example 4: effect on recovery of small intestinal villi (villi length, crypt thickness by optical microscope); format: in vivo, piglets; conditions: 7th day after weaning
Source text: 24 weaned barrows were used and divided into 4 groups (6 animals for each group), namely a control group (C), a nucleic acid alone administration group (N), a glutamic acid alone administration group (G) and a nucleic acid+glutamic acid mixture administration group (N+G). Piglets were weaned at 17 days of age in average. Also, the N group was provided with an experimental feed prepared by adding commercially available ribonucleic acid extracted from beer yeast (manufactured by Kirin Brewery CO., LTD.) at 0.8% per feed weight to the starter feed, the G group with an experimental feed prepared by adding crystalline glutamic acid at 1.2% per feed weight to the starter feed, and the N+G group with an experimental feed prepared by adding ribonucleic acid and glutamic acid at 0.12% of and 1.08%, respectively, per feed weight to the starter feed. On the 7th day after weaning, all piglets were sacrificed to collect the small intestines. After the preparation of tissue sections from the collected small intestines by a general procedure, the length of villi and the thickness of crypt were measured using optical microscope.

Weaned piglets = experiment: Example 1: feeding trial in weaned piglets, nucleic acid and/or glutamine added to starter feed; format: in vivo
Source text: Weaned piglets, 72 barrows and 72 gilts were used and divided into 4 groups (36 animals for each group, 6 replications with 6 animals per replication), namely a control group (C), a nucleic acid alone administration group (N), a glutamine alone administration group (G) and a nucleic acid+glutamine mixture administration group (N+G). Piglets were weaned at 17 days of age in average. Also, the N group was provided with an experimental feed prepared by adding commercially available ribonucleic acid extracted from beer yeast (manufactured by Kirin Brewery CO., LTD.) at 0.8% per feed weight to the starter feed, the G group with an experimental feed prepared by adding crystalline glutamine at 1.2% per feed weight to the starter feed, and the N+G group with an experimental feed prepared by adding ribonucleic acid and glutamine at 0.8% and 1.2%, respectively, per feed weight to the starter feed. After two weeks passed, a common diet was fed to all groups. Body weight and residual feed weight were measured to calculate feed intake, body weight gain and feed efficiency on the 7th, 14th, 21st and 28th days after the weaning.

weaned barrows [2] = experiment: Example 2: feeding trial in weaned piglets, nucleic acid and/or glutamic acid added to starter feed; format: in vivo
Source text: 120 weaned barrows were used and divided into 4 groups (30 animals for each group, 6 replications with 5 animals per replication), namely a control group (C), a nucleic acid alone administration group (N), a glutamic acid alone administration group (G) and a nucleic acid+glutamic acid mixture administration group (N+G). Piglets were weaned at 17 days of age in average. Also, the N group was provided with an experimental feed prepared by adding commercially available ribonucleic acid extracted from beer yeast (manufactured by Kirin Brewery CO., LTD.) at 0.8% per feed weight to the starter feed, the G group with an experimental feed prepared by adding crystalline glutamic acid at 1.2% per feed weight to the starter feed, and the N+G group with an experimental feed prepared by adding ribonucleic acid and glutamic acid at 0.12% and 1.08%, respectively, per feed weight to the starter feed. Body weight and residual feed weight were measured to calculate feed intake, body weight gain and feed efficiency on the 7th and 14th days after the weaning.

[3] = 8 to 14 days after weaning, not statistically significant

Question: How did the Average feed intake (weaned barrows [1]; 1 to 14 days (test feed)) turn out when N[C@@H](CCC(=O)O)C(=O)O [G, glutamic acid] was run?
Answer: Its Average feed intake is 0.225 kg/day.

Question: What about the Body weight gain (weaned barrows [1]; 1 to 14 days (test feed)) of the same compound?
Answer: The Body weight gain was 0.156 kg/day.

Question: What about the Feed efficiency (weaned barrows [1]; 1 to 14 days (test feed)) of the same compound?
Answer: The Feed efficiency was 1.453 Feed kg/Gain kg.

Question: What about the Average feed intake (weaned barrows [1]; 15 to 21 days (common feed)) of the same compound?
Answer: Its Average feed intake is 0.459 kg/day.

Question: What about the Body weight gain (weaned barrows [1]; 15 to 21 days (common feed)) of the same compound?
Answer: The Body weight gain was 0.342 kg/day.

Question: What about the Feed efficiency (weaned barrows [1]; 15 to 21 days (common feed)) of the same compound?
Answer: The Feed efficiency was 1.333 Feed kg/Gain kg.

Question: Which results are given for NC(=O)CC[C@H](N)C(=O)O [G, glutamine]?
Answer: Average feed intake (weaned barrows [1]; 1 to 14 days (test feed)): 0.211 kg/day; Body weight gain (weaned barrows [1]; 1 to 14 days (test feed)): 0.147 kg/day; Feed efficiency (weaned barrows [1]; 1 to 14 days (test feed)): 1.439 Feed kg/Gain kg; Average feed intake (weaned barrows [1]; 15 to 21 days (common feed)): 0.446 kg/day; Body weight gain (weaned barrows [1]; 15 to 21 days (common feed)): 0.351 kg/day; Feed efficiency (weaned barrows [1]; 15 to 21 days (common feed)): 1.280 Feed kg/Gain kg

Question: ribonucleic acid was tested. Which Crypt thickness (Small Intestinal Villi; Duodenum) did it give?
Answer: The Crypt thickness was 130^ab μm.

Question: What about the Villi length (Small Intestinal Villi; Duodenum) of the same compound?
Answer: Its Villi length is 385^b μm.

Question: And the Crypt thickness (Small Intestinal Villi; Ileum)?
Answer: Its Crypt thickness is 128^b μm.

Question: What about the Villi length (Small Intestinal Villi; Ileum) of the same compound?
Answer: The Villi length was 344^ab μm.

Question: And the Crypt thickness (Small Intestinal Villi; Jejunum)?
Answer: The Crypt thickness was 136^b μm.

Question: And the Villi length (Small Intestinal Villi; Jejunum)?
Answer: The Villi length was 406^b μm.

Question: What about the “villi length compared between groups (in words)” value (Small Intestinal Villi; duodenum, N and G vs C, N+G vs N and G) of the same compound?
Answer: Its value is “significantly longer”.

Question: What about the “crypt thickness compared with the C and G group (in words)” value (Small Intestinal Villi; jejunum and ileum) of the same compound?
Answer: Its value is “significantly thicker”.

Question: What about the Average feed intake (Weaned piglets; 0 to 7 days) of the same compound?
Answer: Its Average feed intake is 0.159 kg/day.

Question: And the Body weight gain (Weaned piglets; 0 to 7 days)?
Answer: The Body weight gain was 0.116 kg/day.

Question: And the Feed efficiency (Weaned piglets; 0 to 7 days)?
Answer: The Feed efficiency was 1.392 Feed kg/Gain kg.

Question: And the Average feed intake (Weaned piglets; 0 to 28 days)?
Answer: The Average feed intake was 0.463 kg/day.

Question: And the Body weight gain (Weaned piglets; 0 to 28 days)?
Answer: The Body weight gain was 0.281 kg/day.

Question: And the Feed efficiency (Weaned piglets; 0 to 28 days)?
Answer: Its Feed efficiency is 1.648^bc Feed kg/Gain kg.

Question: And the Average feed intake (Weaned piglets; 7 to 14 days)?
Answer: The Average feed intake was 0.377 kg/day.

Question: And the Body weight gain (Weaned piglets; 7 to 14 days)?
Answer: The Body weight gain was 0.301 kg/day.

Question: What about the Feed efficiency (Weaned piglets; 7 to 14 days) of the same compound?
Answer: Its Feed efficiency is 1.256 Feed kg/Gain kg.

Question: What about the Average feed intake (Weaned piglets; 14 to 21 days) of the same compound?
Answer: Its Average feed intake is 0.525 kg/day.

Question: And the Body weight gain (Weaned piglets; 14 to 21 days)?
Answer: The Body weight gain was 0.274 kg/day.

Question: What about the Feed efficiency (Weaned piglets; 14 to 21 days) of the same compound?
Answer: Its Feed efficiency is 1.945 Feed kg/Gain kg.

Question: What about the Average feed intake (Weaned piglets; 21 to 28 days) of the same compound?
Answer: Its Average feed intake is 0.797 kg/day.

Question: What about the Body weight gain (Weaned piglets; 21 to 28 days) of the same compound?
Answer: Its Body weight gain is 0.432 kg/day.

Question: What about the Feed efficiency (Weaned piglets; 21 to 28 days) of the same compound?
Answer: The Feed efficiency was 1.852 Feed kg/Gain kg.

Question: What about the Average body weight (Weaned piglets; 7 days after weaning, test feed days 0-14) of the same compound?
Answer: The Average body weight was 6.17 kg.

Question: And the Average body weight (Weaned piglets; 14 days after weaning, test feed days 0-14)?
Answer: The Average body weight was 8.28 kg.

Question: What about the Average body weight (Weaned piglets; 21 days after weaning, common diet after day 14) of the same compound?
Answer: Its Average body weight is 10.20 kg.

Question: What about the Average body weight (Weaned piglets; 28 days after weaning, common diet after day 14) of the same compound?
Answer: Its Average body weight is 13.23 kg.

Question: What about the Average body weight (Weaned piglets; at the time of weaning (baseline)) of the same compound?
Answer: Its Average body weight is 5.36 kg.

Question: And the “improvement in feed efficiency compared to the C group (in words)” value (Weaned piglets; whole test period (0 to 28 days after weaning))?
Answer: Its value is “slight improvement in feed efficiency”.

Question: What about the Average feed intake (weaned barrows [2]; 0 to 7 days) of the same compound?
Answer: The Average feed intake was 0.151^ab kg/day.

Question: And the Body weight gain (weaned barrows [2]; 0 to 7 days)?
Answer: The Body weight gain was 0.102^b kg/day.

Question: What about the Feed efficiency (weaned barrows [2]; 0 to 7 days) of the same compound?
Answer: The Feed efficiency was 1.490 Feed kg/Gain kg.

Question: And the Average feed intake (weaned barrows [2]; 8 to 14 days)?
Answer: Its Average feed intake is 0.291 kg/day.

Question: And the Body weight gain (weaned barrows [2]; 8 to 14 days)?
Answer: The Body weight gain was 0.234 kg/day.

Question: And the Feed efficiency (weaned barrows [2]; 8 to 14 days)?
Answer: The Feed efficiency was 1.252 Feed kg/Gain kg.

Question: And the “body weight gain per day compared with C group (in words)” value (weaned barrows [2]; [3])?
Answer: Its value is “further increased”.

Question: And the “feed efficiency compared to the C group and G group (in words)” value (weaned barrows [2]; [3])?
Answer: The value was “tendency to be improved”.

Question: What about the “body weight gain per day compared with the other groups (in words)” value (weaned barrows [2]; 7 days just after weaning) of the same compound?
Answer: The value was “not different from the C group”.

From patent publication US6777396B2, “Feed for livestock” (Ajinomoto Co., Inc., priority 2000, dated 2004)
